Data reported in paper PMC12089509, “NorA Efflux Pump Inhibitors: Expanding SAR Knowledge of Pyrazolo[4,3‐c][1,2]benzothiazine 5,5‐Dioxide Derivatives” (Archiv Der Pharmazie, 2025).

Experiments:
Assay type in all cases: cell-based
[1] = test system: Staphylococcus aureus SA-1199B; experiment: MIC determination (broth microdilution) against SA-1199B; conditions: SA1199B
From the text: In this study, the S. aureus strains SA‐1199B (overexpressing norA) and its isogenic parent SA‐1199 (wild type), the pair SA‐K1902 (norA‐depleted) and SA‐K2378 (complemented with a pCU1 plasmid harboring the norA promoting and coding region from SA‐1199B), were used to test EPI activity as described in a previous study. Furthermore, the S. aureus ATCC 29213 was used as the reference strain in MIC determination experiments.

[2] = biological target: T1, S. aureus NorA efflux pump (SA-1199B strain, overexpresses the norA gene) (Staphylococcus aureus, UniProt P0A0J7); experiment: EtBr efflux inhibition assay; conditions: read-out: EtBr efflux inhibition (%), compound at 50 µM, SA-1199B
T1 construct: endogenous in cells; host or cells: S. aureus SA-1199B (overexpresses norA; isogenic parent SA-1199)
T1 sequence (P0A0J7 whole entry): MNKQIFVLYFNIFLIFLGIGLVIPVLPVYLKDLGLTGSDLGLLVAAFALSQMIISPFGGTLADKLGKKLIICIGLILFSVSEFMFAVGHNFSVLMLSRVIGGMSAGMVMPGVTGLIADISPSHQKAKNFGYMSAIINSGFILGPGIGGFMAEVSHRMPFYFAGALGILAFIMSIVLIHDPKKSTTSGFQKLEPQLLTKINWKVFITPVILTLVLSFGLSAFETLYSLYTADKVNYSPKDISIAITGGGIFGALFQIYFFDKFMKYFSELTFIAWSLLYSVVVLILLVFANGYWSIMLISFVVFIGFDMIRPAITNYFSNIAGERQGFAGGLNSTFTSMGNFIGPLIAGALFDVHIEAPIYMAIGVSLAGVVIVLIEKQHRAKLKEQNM
Method: EtBr efflux inhibition assays were conducted using the S. aureus SA‐1199B strain, which overexpresses the norA gene and has an A116E GrlA substitution. Each compound was tested at 50 µM (see Figure 2). The starting hit compound 1 was used as the internal standard for comparison with the previously reported data.
The cells were grown overnight in cation‐supplemented Mueller–Hinton broth (CAMHB) without any additives at 35°C. The organisms were subsequently diluted into CAMHB to obtain an optical density at 600 nm (OD600) of 0.7–0.8. Subsequently, the cells were pelleted and resuspended at an OD600 of 0.8 in 0.5 mL aliquots of CAMHB containing EtBr and carbonyl cyanide m‐chlorophenylhydrazone (CCCP) to “load” the cells with EtBr (final concentrations of 25 μM for EtBr and 100 μM for CCCP). Following 20 min of incubation at room temperature, the cells were pelleted and resuspended in 1 mL of fresh CAMHB. Immediately thereafter, 200 μL aliquots were transferred into the wells of white 96‐well plates, which either lacked or contained 50 or 10 μM of each test compound. Fluorescence was monitored continuously using a microplate reader (Infinite M200 Pro, TECAN) at excitation and emission wavelengths of 485 and 645 nm, respectively, for a period of 5 min. The experiments were conducted in triplicate, with two technical replicates per biological replicate. The efflux activity of the SA‐1199B strain was expressed as a percentage of fluorescence decrease over a 5‐min time course. The inhibition of this efflux by the test compounds was determined using the following equation: ([efflux in the absence] ‐ [efflux in the presence of test [compound])/[efflux in the absence of test compound] × 100, which yielded the percent efflux inhibition observed.
^a Experiments were performed in triplicate with two technical replicates per biological replicate. Efflux activity of SA-1199B was expressed as percent fluorescence decrease over a 5 min time course. Inhibition of this efflux by test compounds was determined using the equation [efflux in the absence] − [efflux in the presence of test [compound]/[efflux in the absence of test compound] × 100, giving the percent efflux inhibition observed.

[3] = test system: Staphylococcus aureus SA-1199B; conditions: EPI at 12.5 µg/mL
From the text: For purposes of comparison, compound 1 was included as a reference.

Row | Compound | MIC [1] [µg/mL] | inhibition at 50 µM [2] [%] | N° fold CPX MIC reduction [3] [fold]
1 | CN1c2c(-c3ccccc3)n[nH]c2-c2ccccc2S1(=O)=O [Compound 11, 4‐Methyl‐3‐phenyl‐1,4‐dihydropyrazolo[4,3‐c][1,2]benzothiazine 5,5‐dioxide] | > 50 | < 70 | 
2 | Cc1nn(-c2ccc([N+](=O)[O-])cc2)c2c1N(C)S(=O)(=O)c1ccccc1-2 [Compound 6] | > 50 | 22 | 
3 | COc1ccc2c(c1)S(=O)(=O)N(C)c1c(-c3ccc(F)cc3)nn(C)c1-2 [Compound 22, 3‐(4‐Fluorophenyl)‐7‐methoxy‐1,4‐dimethyl‐1,4‐dihydropyrazolo[4,3‐c][1,2]benzothiazine 5,5‐dioxide] | > 50 | 22 | 2
4 | CNCCN1c2c(-c3ccc(F)cc3)n[nH]c2-c2ccccc2S1(=O)=O [Compound 17, 2‐[3‐(4‐Fluorophenyl)‐5,5‐dioxidopyrazolo[4,3‐c][1,2]benzothiazin‐4(1H)‐yl]‐N‐methylethanamine] | > 50 | 57 | 
5 | Cc1nn(-c2ccc([N+](=O)[O-])cc2)c2c1S(=O)(=O)N(C)c1ccccc1-2 [Compound 7, 3,5‐Dimethyl‐1‐(4‐nitrophenyl)‐1,5‐dihydropyrazolo[4,3‐c][2,1]benzothiazine 4,4‐dioxide] | > 50 | 3 | 
6 | CCN1c2c(-c3ccc(F)cc3)n[nH]c2-c2ccccc2S1(=O)=O [Compound 14, 4‐Ethyl‐3‐(4‐fluorophenyl)‐1,4‐dihydropyrazolo[4,3‐c][1,2]benzothiazine 5,5‐dioxide] | > 50 | 57 | 2
7 | O=S1(=O)c2ccccc2-c2[nH]nc(-c3ccc(F)cc3)c2N1CCCO [Compound 15, 3‐[3‐(4‐Fluorophenyl)‐5,5‐dioxidopyrazolo[4,3‐c][1,2]benzothiazin‐4(1H)‐yl]propan‐1‐ol] | > 50 | 17 | 2
8 | O=S1(=O)Nc2c(-c3ccc(Cl)cc3)n[nH]c2-c2ccccc21 [Compound 9, 3‐(4‐Chlorophenyl)‐1,4‐dihydropyrazolo[4,3‐c][1,2]benzothiazine 5,5‐dioxide] | > 50 | 12 | 2
9 | CN1c2c(-c3ccc(F)cc3)nn(C)c2-c2ccc(OCC(O)CO)cc2S1(=O)=O (stereo not shown) [Compound 21, 3‐{[3‐(4‐Fluorophenyl)‐1,4‐dimethyl‐5,5‐dioxido‐1,4‐dihydropyrazolo[4,3‐c][1,2]benzothiazin‐7‐yl]oxy}propane‐1,2‐diol] | > 50 | 0 | 
10 | Cc1nn(-c2ccc([N+](=O)[O-])cc2)c2c1S(=O)(=O)Nc1ccccc1-2 [Compound 5, 3‐Methyl‐1‐(4‐nitrophenyl)‐1,5‐dihydropyrazolo[4,3‐c][2,1]benzothiazine 4,4‐dioxide] | > 50 | 0 | 
11 | Cc1cc(-c2ccccc2NS(C)(=O)=O)n(-c2ccccc2)n1 [Compound 8, N‐[2‐(3‐Methyl‐1‐phenyl‐1H‐pyrazol‐5‐yl)phenyl]methanesulfonamide] | > 50 | 0 | 2
12 | CN1c2c(-c3ccc(Cl)cc3)nn(-c3ccc([N+](=O)[O-])cc3)c2-c2ccccc2S1(=O)=O [Compound 2] | > 50 | 0 | 
13 | CNC(=O)CN1c2c(-c3ccc(F)cc3)n[nH]c2-c2ccccc2S1(=O)=O [Compound 16, 2‐[3‐(4‐Fluorophenyl)‐5,5‐dioxidopyrazolo[4,3‐c][1,2]benzothiazin‐4(1H)‐yl]‐N‐methylacetamide] | > 50 | 22 | 2
14 | Cc1nn(-c2ccc([N+](=O)[O-])cc2)c2c1NS(=O)(=O)c1ccccc1-2 [Compound 4] | > 50 | 0 | 
